Experimental data taken from patent US11180504B2 (ORCHID PHARMA LTD., priority 2016, dated 2021).
Values after ≈ are worked out from the molar mass of the structure shown. Read-outs that look alike come from different tables or passages of the source.

Tests used:
[1] = test system: carbapenemase producing K. pneumoniae; experiment: MIC by broth micro-dilution (CLSI), carbapenemase producing K. pneumoniae; format: cell-based, Klebsiella pneumoniae
[2] = test system: carbapenem sensitive Pseudomonas aeruginosa; experiment: MIC by broth micro-dilution (CLSI), carbapenem sensitive P. aeruginosa; format: cell-based
[3] = test system: methicillin-sensitive Staphylococcus aureus; experiment: MIC by broth micro-dilution (CLSI), methicillin-sensitive S. aureus; format: cell-based; settings: MSSA S. aureus ATCC29213
[4] = test system: carbapenem sensitive Escherichia coli; experiment: MIC by broth micro-dilution (CLSI), carbapenem sensitive E. coli; format: cell-based
[5] = Klebsiella pneumoniae, ATCCBAA1705, KPC-2 K. pneumoniae ATCC BAA-1705, read-out: MIC
[6] = Pseudomonas aeruginosa, ATCC27853, Meropenem susceptible P. aeruginosa ATCC27853, read-out: MIC
[7] = Staphylococcus aureus, ATCC 29213 / MSSA, read-out: MIC
[8] = Escherichia coli, ATCC25922, ESBL −ve E. coli ATCC25922, read-out: MIC
[9] = KPC-2 K. pneumoniae ATCC BAA-1705
[10] = Meropenem susceptible P. aeruginosa ATCC27853

`C[C@@H](NC(=O)Cn1cnnn1)[C@H]1C(=O)N2C(C(=O)O)=C(S[C@@H]3CN[C@H](C(=O)N4C[C@H](N)C[C@@H]4CN)C3)[C@H](C)[C@H]12` [Example 473, (4R,5S,6R)-6-((R)-1-(2-(1H-tetrazol-1-yl)acetamido)ethyl)-3-((3S,5S)-5-((2R,4R)-4-amino-2-(aminomethyl)pyrrolidine-1-carbonyl)pyrrolidin-3-ylthio)-4-methyl-7-oxo-1-azabicyclo[3.2.0]hept-2-ene-2-carboxylic acid] gave an MIC [1, 5] of 2 µg/mL (≈ 3.55 µM), an MIC [2, 6] of 4 µg/mL (≈ 7.11 µM) and an MIC [3, 7] of 4 µg/mL (≈ 7.11 µM). It also gave an MIC [4, 8] of 0.5 µg/mL (≈ 0.889 µM).
`C[C@@H](NC(=O)Cn1cnnn1)[C@H]1C(=O)N2C(C(=O)O)=C(S[C@@H]3CN[C@H](C(=O)N4CC5CCCNC5C4)C3)[C@H](C)[C@H]12` (single isomer, unassigned) [Example 459] gave an MIC [1, 9] of 1 µg/mL (≈ 1.74 µM), an MIC [2, 10] of 2 µg/mL (≈ 3.49 µM) and an MIC [3] of 1 µg/mL (≈ 1.74 µM). The MIC ([4]; ESBL −ve E. coli ATCC25922) was 0.125 µg/mL (≈ 0.218 µM).
`CNCC(=O)N[C@H](C)[C@H]1C(=O)N2C(C(=O)O)=C(S[C@@H]3CN[C@H](C(=O)N4CC[C@H](n5ncnn5)C4)C3)[C@H](C)[C@H]12` [Example 310, (4R,5S,6R)-3-((3S,5S)-5-((S)-3-(2H-tetrazol-2-yl)pyrrolidine-1-carbonyl)pyrrolidin-3-ylthio)-4-methyl-6-((R) - 1-(2-(methylamino)acetamido)ethyl)-7-oxo-1-azabicyclo[3.2.0]hept-2-ene-2-carboxylic acid] was tested, and the MIC [1, 5] was 4 µg/mL (≈ 7.3 µM), the MIC [2, 6] was 64 µg/mL (≈ 117 µM) and the MIC [3, 7] was 32 µg/mL (≈ 58.4 µM). The MIC [4, 8] was 1 µg/mL (≈ 1.83 µM).
In the case of `C[C@@H](NC(=O)Cn1cnnn1)[C@H]1C(=O)N2C(C(=O)O)=C(S[C@@H]3CN[C@H](C(=O)N4CCN(CCN)CC4)C3)[C@H](C)[C@H]12` [Example 364, (4R,5S,6R)-6-((R)-1-(2-(1H-tetrazol-1-yl)acetamido)ethyl)-3-((3S,5S)-5-(4-(2-aminoethyl)piperazine-1-carbonyl)pyrrolidin-3-ylthio)-4-methyl-7-oxo-1-azabicyclo[3.2.0]hept-2-ene-2-carboxylic acid], the MIC [1, 5] is reported as 2 µg/mL (≈ 3.47 µM), the MIC [2, 6] is reported as 1 µg/mL (≈ 1.73 µM) and the MIC [3, 7] is reported as 4 µg/mL (≈ 6.94 µM). The MIC [4, 8] was 0.25 µg/mL (≈ 0.434 µM).
`C[C@@H](NC(=O)Cn1nnnc1C(F)F)[C@H]1C(=O)N2C(C(=O)O)=C(S[C@@H]3CN[C@H](C(=O)N4CC[C@@H](N)C4)C3)[C@H](C)[C@H]12` [Example 349, (4R,5S,6R)-3-((3S,5S)-5-((R)-3-aminopyrrolidine-1-carbonyl)pyrrolidin-3-ylthio)-6-((R)-1-(2-(5-(difluoromethyl)-1H-tetrazol-1-yl)acetamido)ethyl)-4-methyl-7-oxo-1-azabicyclo[3.2.0]hept-2-ene-2-carboxylic acid] was tested, and the MIC [1, 5] was 4 µg/mL (≈ 6.85 µM), the MIC [2, 6] was 32 µg/mL (≈ 54.8 µM) and the MIC [3, 7] was 4 µg/mL (≈ 6.85 µM). It also gave an MIC [4, 8] of 0.25 µg/mL (≈ 0.428 µM).
`C[C@@H](NC(=O)Cn1cnnn1)[C@H]1C(=O)N2C(C(=O)O)=C(S[C@@H]3CN[C@H](C(=O)N4CCC5CNCCC54)C3)[C@H](C)[C@H]12` (stereo partly drawn) [Example 439, (4R,5S,6R)-6-((R)-1-(2-(1H-tetrazol-1-yl)acetamido)ethyl)-4-methyl-3-((3S,5S)-5-(octahydro-1H-pyrrolo[3,2-c]pyridine-1-carbonyl)pyrrolidin-3-ylthio)-7-oxo-1-azabicyclo[3.2.0]hept-2-ene-2-carboxylic acid] was tested, and the MIC [1, 9] was 1 µg/mL (≈ 1.74 µM), the MIC [2, 10] was 1 µg/mL (≈ 1.74 µM) and the MIC [3] was 2 µg/mL (≈ 3.49 µM). The MIC ([4]; ESBL −ve E. coli ATCC25922) was 0.25 µg/mL (≈ 0.436 µM).
Work on `CCOC(=O)c1nnnn1CC(=O)N[C@H](C)[C@H]1C(=O)N2C(C(=O)O)=C(S[C@@H]3CN[C@H](C(=O)N4CC[C@@H](N)C4)C3)[C@H](C)[C@H]12` [Example 339, (4R,5S,6R)-3-((3S,5S)-5-((R)-3-aminopyrrolidine-1-carbonyl)pyrrolidin-3-ylthio)-6-((R) - 1-(2-(5-(ethoxycarbonyl) - 1H-tetrazol-1-yl)acetamido)ethyl)-4-methyl-7-oxo-1-azabicyclo[3.2.0]bept-2-ene-2-carboxylic acid] yielded an MIC [1, 5] of 32 µg/mL (≈ 52.8 µM), an MIC [2, 6] of 32 µg/mL (≈ 52.8 µM) and an MIC [3, 7] of 8 µg/mL (≈ 13.2 µM). The MIC [4, 8] was 1 µg/mL (≈ 1.65 µM).
With `C[C@@H](NC(=O)Cn1cnnn1)[C@H]1C(=O)N2C(C(=O)O)=C(S[C@@H]3CN[C@H](C(=O)N4CCCC45CCCNC5)C3)[C@H](C)[C@H]12` (stereo partly drawn) [Example 503, (4R,5S,6R)-3-((3S,5S)-5-(1,7-diazaspiro[4.5]decane-1-carbonyl)pyrrolidin-3-ylthio)-6-((R)-1-(2-(1H-tetrazol-1-yl)acetamido)ethyl)-4-methyl-7-oxo-1-azabicyclo[3.2.0]hept-2-ene-2-carboxylic acid] the MIC [1, 9] was 1 µg/mL (≈ 1.7 µM), the MIC [2, 6] was 16 µg/mL (≈ 27.2 µM) and the MIC [3, 7] was 2 µg/mL (≈ 3.4 µM). It also gave an MIC [4, 8] of 0.5 µg/mL (≈ 0.851 µM).
Molecule `C[C@@H]1C(S[C@@H]2CN[C@H](C(=O)N(C)C)C2)=C(C(=O)O)N2C(=O)[C@H]([C@@H](C)NC(=O)C(F)F)[C@@H]12` [Example 337, (4S,5S,6R)-6-((R) - 1-(2,2-difluoroacetamido)ethyl)-3-((3S,5S)-5-(dimethylcarbamoyl)pyrrolidin-3-ylthio)-4-methyl-7-oxo-1-azabicyclo[3.2.0]hept-2-ene-2-carboxylic acid] has an MIC [1, 5] of 1 µg/mL (≈ 2.17 µM), an MIC [2, 6] of 32 µg/mL (≈ 69.5 µM) and an MIC [3, 7] of 2 µg/mL (≈ 4.34 µM). It also gave an MIC [4, 8] of 0.5 µg/mL (≈ 1.09 µM).
In the case of `C[C@@H](NC(=O)C(F)F)[C@H]1C(=O)N2C(C(=O)O)=C(SC3CN(C4=NCCS4)C3)[C@H](C)[C@H]12` [Example 263], the MIC [1, 5] is reported as 2 µg/mL (≈ 4.34 µM), the MIC [2, 6] is reported as 128 µg/mL (≈ 278 µM) and the MIC [3, 7] is reported as 0.25 µg/mL (≈ 0.543 µM). The MIC [4, 8] was 0.25 µg/mL (≈ 0.543 µM).
`C[C@@H](NC(=O)Cn1cnnn1)[C@H]1C(=O)N2C(C(=O)O)=C(S[C@@H]3CN[C@H](C(=O)N4CC5CCNCC5(CO)C4)C3)[C@H](C)[C@H]12` (single isomer, unassigned) [Example 539] showed an MIC [1, 5] of 1 µg/mL (≈ 1.66 µM), an MIC [2, 6] of 2 µg/mL (≈ 3.31 µM) and an MIC [3, 7] of 4 µg/mL (≈ 6.63 µM). It also gave an MIC [4, 8] of 0.25 µg/mL (≈ 0.414 µM).
`C[C@@H](NC(=O)Cn1cnnn1)[C@H]1C(=O)N2C(C(=O)O)=C(S[C@@H]3CN[C@H](C(=O)N4C[C@H]5C[C@H](N)C[C@@]5(CO)C4)C3)[C@H](C)[C@H]12` [Example 526, (4R,5S,6R)-6-((R)-1-(2-(1H-tetrazol-1-yl)acetamido)ethyl)-3-((3S,5S)-5-((3aS,5S,6aS)-5-amino-3a-(hydroxymethyl)octahydrocyclopenta[c]pyrrole-2-carbonyl)pyrrolidin-3-ylthio)-4-methyl-7-oxo-1-azabicyclo[3.2.0]hept-2-ene-2-carboxylic acid] gave an MIC [1, 5] of 2 µg/mL (≈ 3.31 µM), an MIC [2, 6] of 1 µg/mL (≈ 1.66 µM) and an MIC [3, 7] of 4 µg/mL (≈ 6.63 µM). For the same molecule, the MIC [4, 8] was 0.25 µg/mL (≈ 0.414 µM).
Molecule `C[C@@H](NC(=O)CC(N)=O)[C@H]1C(=O)N2C(C(=O)O)=C(S[C@@H]3CN[C@H](C(=O)N(C)C)C3)[C@H](C)[C@H]12` [Example 268] has an MIC [1, 5] of 4 µg/mL (≈ 8.56 µM), an MIC [2, 6] of 32 µg/mL (≈ 68.4 µM) and an MIC [3, 7] of 8 µg/mL (≈ 17.1 µM). For the same molecule, the MIC [4, 8] was 2 µg/mL (≈ 4.28 µM).
`C[C@@H](NC(=O)Cn1cnnn1)C1C(=O)N2C(C(=O)O)=C(S[C@@H]3CN[C@H](C(=O)N4CCN(C[C@@H](F)CN)CC4)C3)[C@H](C)C12` (stereo in doubt) [Example 462, (4R,5S,6R)-6-((R)-1-(2-(1H-tetrazol-1-yl)acetamido)ethyl)-3-((3S,5S)-5-(4-((S)-3-amino-2-fluoropropyl)piperazine-1-carbonyl)pyrrolidin-3-ylthio)-4-methyl-7-oxo-1-azabicyclo[3.2.0]hept-2-ene-2-carboxylic acid] was tested, and the MIC [1, 5] was 1 µg/mL (≈ 1.64 µM), the MIC [2, 6] was 2 µg/mL (≈ 3.29 µM) and the MIC [3, 7] was 4 µg/mL (≈ 6.57 µM). For the same molecule, the MIC [4, 8] was 0.25 µg/mL (≈ 0.411 µM).
